16 compounds from ChEMBL document CHEMBL4619729, “In silico and in vitro studies on interaction of novel non-imidazole histamine H3R antagonists with CYP3A4” (Bioorg Med Chem Lett, 2020) can be followed below.

In data set [1] the target is T1, CYP3A4 (Homo sapiens, UniProt P08684). Description: Inhibition of CYP3A4 (unknown origin) assessed as inhibition of conversion of beetle D-luciferin to D-luciferin at 10 uM by luminescent P450-Glo assay relative to control. Format: ADME. Conditions: probe beetle D-luciferin.
T1 sequence (P08684 whole entry): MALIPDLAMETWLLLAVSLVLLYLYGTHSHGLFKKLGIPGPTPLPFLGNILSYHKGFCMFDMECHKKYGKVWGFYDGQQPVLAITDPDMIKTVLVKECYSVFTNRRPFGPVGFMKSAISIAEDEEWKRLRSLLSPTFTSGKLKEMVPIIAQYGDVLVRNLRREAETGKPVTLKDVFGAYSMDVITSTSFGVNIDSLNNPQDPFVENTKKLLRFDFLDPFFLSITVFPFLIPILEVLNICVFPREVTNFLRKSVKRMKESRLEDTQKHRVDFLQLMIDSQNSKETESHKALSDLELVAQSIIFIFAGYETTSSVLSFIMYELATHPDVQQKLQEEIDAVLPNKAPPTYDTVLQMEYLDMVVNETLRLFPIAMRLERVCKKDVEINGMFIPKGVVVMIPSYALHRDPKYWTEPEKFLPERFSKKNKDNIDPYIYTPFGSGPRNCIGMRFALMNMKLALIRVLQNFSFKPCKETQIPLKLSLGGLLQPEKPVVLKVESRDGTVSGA
The target of data set [2] is T1, CYP3A4. In words: Activation of human recombinant CYP3A4 assessed as activation of conversion of beetle D-luciferin to D-luciferin at 10 uM preincubated for 10 mins followed by substrate addition and measured after 50 mins in presence of NADPH by CYP450-Glo assay relative to control. The format is ADME. Conditions: recombinant CYP3A4, probe beetle D-luciferin, read-out: Activity.

For data set [3], the target named is Cytochrome P450 3A4 (Homo sapiens, UniProt P08684). In words: Activation of CYP3A4 (unknown origin) assessed as activation of conversion of beetle D-luciferin to D-luciferin at 10 uM by luminescent P450-Glo assay relative to control. Format: ADME.
Sequence of Cytochrome P450 3A4 (P08684 whole entry): as above
Data set [4] concerns the target T2, Histamine H3 receptor (Homo sapiens, UniProt Q9Y5N1). Description: Binding affinity to H3R (unknown origin).
Data set [5] addresses T2, Histamine H3 receptor. In words: Displacement of [3H]-N-alpha-methylhistamine from human recombinant full length H3R expressed in HEK293 cell membranes by Microbeta scintillation counting method.

T2 sequence (Q9Y5N1 whole entry): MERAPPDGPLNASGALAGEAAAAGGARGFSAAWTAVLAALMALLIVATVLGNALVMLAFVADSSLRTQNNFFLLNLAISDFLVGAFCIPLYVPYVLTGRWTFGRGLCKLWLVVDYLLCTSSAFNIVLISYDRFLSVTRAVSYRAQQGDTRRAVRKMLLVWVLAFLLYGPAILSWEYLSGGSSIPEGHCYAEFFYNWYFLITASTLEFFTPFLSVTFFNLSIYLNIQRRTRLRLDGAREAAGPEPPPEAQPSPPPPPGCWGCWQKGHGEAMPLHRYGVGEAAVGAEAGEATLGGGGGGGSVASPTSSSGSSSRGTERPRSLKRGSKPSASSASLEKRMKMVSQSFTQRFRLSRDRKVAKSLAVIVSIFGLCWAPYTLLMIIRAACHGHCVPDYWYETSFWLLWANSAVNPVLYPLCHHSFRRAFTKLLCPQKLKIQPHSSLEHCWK

Consider `Clc1ccc(OCCCCCCN2CCCCCC2)cc1`, for which, in data set [1], the inhibition at 10 µM stood at 23%.
`CC1CCCN(CCCCCCCOc2ccc(Cl)cc2)C1` (stereo not drawn): the inhibition at 10 µM in data set [1] was 4%.
In the case of `c1ccc2cc(OCCCCCCN3CCCCCC3)ccc2c1`, the activity at 50 min, 10 µM in data set [2] was found to be 14%.
As for `c1ccc2c(OCCCCCCN3CCCCCC3)cccc2c1`, the inhibition at 10 µM in data set [1] turned out to be 46%.
The same measure, in the same setting: with `CC(C)(C)c1ccc(OCCCN2CCCCC2)cc1` the figure was 61%.
Consider `CCC(C)(C)c1ccc(OCCCN2CCCCC2)cc1`, for which, in data set [1], the inhibition at 10 µM worked out at 8%.
For `CCC(C)(C)c1ccc(OCCCCCCCN2CCCCCC2)cc1`, the inhibition at 10 µM in data set [1] was 38%.
Still for that read-out and setting: with `CCC(C)(C)c1ccc(OCCCCCCCCN2CCCCCC2)cc1` the figure was 41%; with `CCC(C)(C)c1ccc(OCCCCN2CCCCCC2)cc1`, 5%.
In the case of `CCC(C)(C)c1ccc(OCCCCCCN2CCCCCC2)cc1`, the Activity in data set [3] is 18%.
Consider `CCC(C)(C)c1ccc(OCCCN2CCCCCC2)cc1`, for which the inhibition at 10 µM in data set [1] came out at 13%.
The same measure, in the same setting: with `c1ccc(-c2ccc(OCCCCCCN3CCCCCC3)cc2)cc1` the figure was 13%; with `c1ccc(-c2cccc(OCCCCCCN3CCCCCC3)c2)cc1`, 19%.
In data set [4], `CC(C)(C)c1ccc(OCCCCCCN2CCCCCC2)cc1` yielded an inhibitory constant (Ki) of 829 nM. Besides, the inhibition at 10 µM in data set [1] was found to be 19%.
Regarding `O=C(c1ccccc1)c1cccc(OCCCCCCN2CCCCCC2)c1`, the Activity in data set [3] is reported as 713%. Besides, the inhibitory constant (Ki) in data set [5] was found to be 41 nM.
As to `Fc1ccc(OCCCCCCN2CCCCCC2)cc1`, in data set [1], the inhibition at 10 µM was 17%.
